Experimental data as given in the supplement of paper PMC10307832.

Legend:
Assay in all cases: relative viability (nuclei count vs DMSO), 5 days (fraction); higher = more cells survive
CAL-12T = test system: CAL-12T
Summary of the method: (§1)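 Cells from lung cancer lines were seeded into 1536-well plates and, one day later, dosed by pin tool. Treatments were either a single drug or a fixed dose of an anchor drug with five library-drug doses (not always all listed) in √10 steps. After 5 days, nuclei were stained in a one-step fixation (final 0.05% Triton X-100, 1% formaldehyde, 1 ug/ml Hoechst) and counted on 4× images, and relative viability is the treated-to-vehicle nuclei ratio, as the median of duplicate plates.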

NCI-H1650 = test system: NCI-H1650
Summary of the method: as §1

A549 = test system: A549
Summary of the method: as §1

IA-LM = test system: IA-LM
Summary of the method: as §1

A-427 = test system: A-427
Summary of the method: as §1

NCI-H1299 = test system: NCI-H1299
Summary of the method: as §1

NCI-H1703 = test system: NCI-H1703
Summary of the method: as §1

LK-2 = test system: LK-2
Summary of the method: as §1

Calu-6 = test system: Calu-6
Summary of the method: as §1

NCI-H1734 = test system: NCI-H1734
Summary of the method: as §1

UMC-11 = test system: UMC-11
Summary of the method: as §1

NCI-H2009 = test system: NCI-H2009
Summary of the method: as §1

EBC-1 = test system: EBC-1
Summary of the method: as §1

Compound: Nc1ccn([C@@H]2O[C@H](CO)[C@@H](O)[C@@H]2O)c(=O)n1 [Cytarabine] + CC1(C)CCC(c2ccc(Cl)cc2)=C(CN2CCN(c3ccc(C(=O)NS(=O)(=O)c4ccc(N[C@H](CCN5CCOCC5)CSc5ccccc5)c(S(=O)(=O)C(F)(F)F)c4)cc3)CC2)C1 [Navitoclax] (partner 0.5 µM)
- relative viability (CAL-12T; first compound 0.005 µM): 1.24
- relative viability (CAL-12T; first compound 0.01581 µM): 1.4
- relative viability (CAL-12T; first compound 0.05 µM): 1.13
- relative viability (CAL-12T; first compound 0.1581 µM): 0.598
- relative viability (CAL-12T; first compound 0.5 µM): 0.244
- relative viability (NCI-H1650; first compound 0.005 µM): 1.11
- relative viability (NCI-H1650; first compound 0.01581 µM): 1.24
- relative viability (NCI-H1650; first compound 0.05 µM): 0.616
- relative viability (NCI-H1650; first compound 0.1581 µM): 0.355
- relative viability (NCI-H1650; first compound 0.5 µM): 0.18
- relative viability (A549; first compound 0.005 µM): 0.969
- relative viability (A549; first compound 0.01581 µM): 0.588
- relative viability (A549; first compound 0.05 µM): 0.476
- relative viability (A549; first compound 0.1581 µM): 0.0384
- relative viability (A549; first compound 0.5 µM): 0.0234
- relative viability (IA-LM; first compound 0.005 µM): 0.917
- relative viability (IA-LM; first compound 0.01581 µM): 0.603
- relative viability (IA-LM; first compound 0.05 µM): 0.64
- relative viability (IA-LM; first compound 0.1581 µM): 0.279
- relative viability (IA-LM; first compound 0.5 µM): 0.151
- relative viability (A-427; first compound 0.005 µM): 0.813
- relative viability (A-427; first compound 0.01581 µM): 0.496
- relative viability (A-427; first compound 0.05 µM): 0.257
- relative viability (A-427; first compound 0.1581 µM): 0.154
- relative viability (A-427; first compound 0.5 µM): 0.16
- relative viability (NCI-H1299; first compound 0.005 µM): 1.09
- relative viability (NCI-H1299; first compound 0.01581 µM): 1.13
- relative viability (NCI-H1299; first compound 0.05 µM): 1.08
- relative viability (NCI-H1299; first compound 0.1581 µM): 1.02
- relative viability (NCI-H1299; first compound 0.5 µM): 0.989
- relative viability (NCI-H1703; first compound 0.005 µM): 0.717
- relative viability (NCI-H1703; first compound 0.01581 µM): 0.365
- relative viability (NCI-H1703; first compound 0.05 µM): 0.244
- relative viability (NCI-H1703; first compound 0.1581 µM): 0.135
- relative viability (NCI-H1703; first compound 0.5 µM): 0.105
- relative viability (LK-2; first compound 0.005 µM): 0.527
- relative viability (LK-2; first compound 0.01581 µM): 0.425
- relative viability (LK-2; first compound 0.05 µM): 0.316
- relative viability (LK-2; first compound 0.1581 µM): 0.191
- relative viability (LK-2; first compound 0.5 µM): 0.194
- relative viability (Calu-6; first compound 0.005 µM): 0.831
- relative viability (Calu-6; first compound 0.01581 µM): 0.796
- relative viability (Calu-6; first compound 0.05 µM): 0.9
- relative viability (Calu-6; first compound 0.1581 µM): 0.338
- relative viability (Calu-6; first compound 0.5 µM): 0.22
- relative viability (NCI-H1734; first compound 0.005 µM): 0.418
- relative viability (NCI-H1734; first compound 0.01581 µM): 0.322
- relative viability (NCI-H1734; first compound 0.05 µM): 0.197
- relative viability (NCI-H1734; first compound 0.1581 µM): 0.142
- relative viability (NCI-H1734; first compound 0.5 µM): 0.126
- relative viability (UMC-11; first compound 0.005 µM): 0.268
- relative viability (UMC-11; first compound 0.01581 µM): 0.197
- relative viability (UMC-11; first compound 0.05 µM): 0.2
- relative viability (UMC-11; first compound 0.1581 µM): 0.141
- relative viability (UMC-11; first compound 0.5 µM): 0.125
- relative viability (NCI-H2009; first compound 0.005 µM): 1.13
- relative viability (NCI-H2009; first compound 0.01581 µM): 1.21
- relative viability (NCI-H2009; first compound 0.05 µM): 0.99
- relative viability (NCI-H2009; first compound 0.1581 µM): 0.898
- relative viability (NCI-H2009; first compound 0.5 µM): 0.31
- relative viability (EBC-1; first compound 0.005 µM): 0.304
- relative viability (EBC-1; first compound 0.01581 µM): 0.281
- relative viability (EBC-1; first compound 0.05 µM): 0.233
- relative viability (EBC-1; first compound 0.1581 µM): 0.222
- relative viability (EBC-1; first compound 0.5 µM): 0.165
